Test results reported in US9751854B2 (Millennium Pharmaceuticals, Inc., priority 2014, dated 2017).

How the values were obtained:
human VPS34 = human VPS34 (Homo sapiens (Human), UniProt Q8NEB9); assay: Human VPS34 enzyme assay (Adapta TR-FRET ADP detection); format: biochemical; conditions: IC50 range class
A431 cell line = assay: Cellular anti-proliferative assay of VPS34 inhibitors in combination with a second therapeutic agent (Cell Titer Glo, 72 hrs); format: cell-based
Experimental: (§1) Example 57: Cellular Assay for Anti-proliferative Activity of VPS34 Inhibitors in Combination with a Second Therapeutic Agent
(§2) Cells were plated in 25 μl of media in 384 well plates at 1,000 cells per well (A431, PC9, and […] cell lines), 1,500 cells per well (NCI-H1975) or 2,000 cells per well (NCI-H1650). The plates were incubated for 24 hrs at 37° C., 6% CO2. The test compounds (see Table 38 below) were diluted serially, and 62.5 nL of each compound solution (or DMSO, if it is a single agent experiment) is added so the total added to the cells is 125 nL. Cell plates were incubated for 72 hrs at 37° C., 6% CO2. Cell Titer Glo reagent (Promega) was added. The plates were then incubated for 10 minutes at room temperature before luminescence was read on a plate reader such as the Pherastar Plus, Pherastar FS, or LEADSeeker imaging system.
(§3) Bliss antagonism was defined similarly.
(§4) Bliss dependence was defined as the percent cell survival at a certain dose combination divided by the percent cell survival predicted by Bliss independence. More specifically, the Bliss dependence is vAB/(vA*vB), where vAB is the viability with drug A and drug B added, while vA and vB are the viabilities with each drug alone. The dose for the combination used in this study is the inflection point for each drug alone.
(§5) Another way to evaluate additivity is through consideration of Loewe additivity. A difference between Bliss independence and Loewe additivity evaluations of drug combination data is that Bliss independence evaluates whether two drugs interact at all (the null hypothesis is that the mechanisms are entirely independent) and Loewe additivity evaluates whether two drugs interact in an additive fashion (the null hypothesis is that the two drugs work by identical mechanisms). For Bliss independence, the boundary between additivity and synergy must be measured. For Loewe additivity, this boundary is assumed to be at a value of 1. Thus, Bliss independence provides a boundary between antagonism and synergy or additivity. Loewe additivity provides a boundary between synergy and independence or antagonism.
(§6) Synergy can also be measured by nonlinear blending synergy. Nonlinear blending synergy [Peterson, J. J. and Novik, S. J. J Recept Signal Transduct Res, 27, 12-146 (2007))] is found by considering the percent cell death values along the nonlinear blending plot. If the maximum cell death occurs between the endpoints, then the blending synergy is the difference between the maximum cell death for the combined drugs and the maximum cell death for the either drug alone.
(§7) A derivative of Loewe additivity is the Combination Index, I (see Chou T. C., Talalay P. Adv. Enzyme Reg., 22: 27-55 (1984) and Berenbaum M. C. J. Theor. Biol., 114:413-431 (1985)). This measure is based on the shape of the isobologram which represents 50% viability (for a review of the use of isobolograms in analysis of drug combinations, see Tallarida, R. J. J. Pharm. Exp. Therap. 319:1-7 (2006)).
(§8) The results in Table 38A were summarized by categorizing the Combination Index, I. A mean Combination Index in the range (0.7-1.3) is classified as Additivity. A mean in the range (0-0.7) is classified as Synergy. A mean in the range (1.3-2) is classified as Subadditivity. A mean greater than 2 is classified as Antagonism. […] In this case, the Nonlinear Blending Synergy is used instead to generate a call (Table 38B). The categorization is similar to the Combination Index. A Nonlinear Blending Synergy within the range (−20, 20) is classified as Additive. A value below −20 is classified as Antagonism, while a value above 20 is classified as Synergy.

NCI-H1650 cell line = assay: as above; format: cell-based, human; conditions: NCI H-1650
Experimental: as §1, §2, §3, §4, §5, §6, §7, §8

NCI-H1975 cell line = assay: as above; format: cell-based, human
Experimental: as §1, §2, §3, §4, §5, §6, §7, §8

PC9 cell line = assay: as above; format: cell-based, human
Experimental: as §1, §2, §3, §4, §5, §6, §7, §8

[1] = in combination with AZD9291 (Compound Y)
[2] = in combination with Afatinib (Compound Y)
[3] = in combination with CO-1686 (Compound Y)
[4] = in combination with CO-1686, call from Combination Index
[5] = in combination with Erlotinib (Compound Y)

Chain of human VPS34 (Q8NEB9 whole entry): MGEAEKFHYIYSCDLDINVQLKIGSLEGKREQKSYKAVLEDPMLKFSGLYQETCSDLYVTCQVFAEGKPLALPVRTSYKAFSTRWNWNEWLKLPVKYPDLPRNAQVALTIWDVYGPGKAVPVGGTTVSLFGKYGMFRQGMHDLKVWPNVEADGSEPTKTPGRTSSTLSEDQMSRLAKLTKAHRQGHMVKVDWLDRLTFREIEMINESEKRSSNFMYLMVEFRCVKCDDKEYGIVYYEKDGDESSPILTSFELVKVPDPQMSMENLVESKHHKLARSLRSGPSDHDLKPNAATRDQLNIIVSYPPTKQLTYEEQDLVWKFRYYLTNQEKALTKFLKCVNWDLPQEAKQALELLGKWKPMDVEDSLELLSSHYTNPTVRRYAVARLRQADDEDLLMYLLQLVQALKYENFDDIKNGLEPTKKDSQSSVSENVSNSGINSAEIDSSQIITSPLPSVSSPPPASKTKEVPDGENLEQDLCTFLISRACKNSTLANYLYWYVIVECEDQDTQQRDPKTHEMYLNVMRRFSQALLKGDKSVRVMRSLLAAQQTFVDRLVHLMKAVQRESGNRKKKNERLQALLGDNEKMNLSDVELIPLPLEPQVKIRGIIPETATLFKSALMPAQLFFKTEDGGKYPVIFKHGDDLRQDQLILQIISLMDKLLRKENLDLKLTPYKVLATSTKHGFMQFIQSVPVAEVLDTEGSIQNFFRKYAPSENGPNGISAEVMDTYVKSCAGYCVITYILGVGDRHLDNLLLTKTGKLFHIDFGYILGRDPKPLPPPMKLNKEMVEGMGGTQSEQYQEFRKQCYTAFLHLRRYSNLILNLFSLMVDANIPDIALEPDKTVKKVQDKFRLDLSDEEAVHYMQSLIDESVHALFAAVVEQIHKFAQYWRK

Cc1c(-c2ccnc(NC(=O)C3CC3)c2)cnc(Cl)c1NS(=O)(=O)c1ccc(F)cc1F [Compound I-308, N-(6-chloro-5-{[(2,4-difluorophenyl)sulfonyl]amino}-4-methyl-3,4′-bipyridin-2′-yl)cyclopropanecarboxamide]
IC50 (human VPS34): < 0.01 µM | Blending Synergy (A431 cell line; [1]): 10.2 | Meaning (A431 cell line; in combination with AZD9291, call from Nonlinear Blending Synergy): Additivity | Blending Synergy (A431 cell line; [2]): 11.2 | Meaning (A431 cell line; in combination with Afatinib, call from Nonlinear Blending Synergy): Additivity | Combination Index (A431 cell line; [3]): 0.88 | Meaning (A431 cell line; [4]): Additivity (A mean Combination Index in the range (0.7-1.3) is classified as Additivity) | Blending Synergy (A431 cell line; [5]): 15.2 | Meaning (A431 cell line; in combination with Erlotinib, call from Nonlinear Blending Synergy): Additivity | Combination Index (NCI-H1650 cell line; [1]): 0.53 | Combination Index (NCI-H1650 cell line; [2]): 0.55 | Combination Index (NCI-H1650 cell line; [3]): 0.36 | Blending Synergy (NCI-H1650 cell line; [5]): 27.0 | Combination Index (NCI-H1975 cell line; [1]): 0.72 | Combination Index (NCI-H1975 cell line; [2]): 0.84 | Combination Index (NCI-H1975 cell line; [3]): 0.60 | Combination Index (PC9 cell line; [1]): 1.33 | Meaning (PC9 cell line; in combination with AZD9291, call from Combination Index): Subadditivity (A mean in the range (1.3-2) is classified as Subadditivity) | Combination Index (PC9 cell line; [2]): 1.49 | Meaning (PC9 cell line; in combination with Afatinib, call from Combination Index): Subadditivity (A mean in the range (1.3-2) is classified as Subadditivity) | Combination Index (PC9 cell line; [3]): 1.19 | Meaning (PC9 cell line; [4]): Additivity (A mean Combination Index in the range (0.7-1.3) is classified as Additivity) | Combination Index (PC9 cell line; [5]): 1.36 | Meaning (PC9 cell line; in combination with Erlotinib, call from Combination Index): Subadditivity (A mean in the range (1.3-2) is classified as Subadditivity)
